{"source": "patent US4395553A", "about": "“Chemical compounds” (Bristol-Myers Company, priority 1982, dated 1983)", "key": {"[1]": {"test_system": "H2-receptor", "conditions": "cited from earlier work; for potency / effectiveness as H2-antagonist versus other H2-antagonist: compared with burimamide or metiamide"}, "[2]": {"conditions": "cited from earlier work"}, "[3]": {"test_system": "agranulocytosis", "conditions": "in vivo; cited from earlier work"}, "[4]": {"test_system": "peptic ulcer disease", "conditions": "clinical evaluation; cited from earlier work"}, "[5]": {"test_system": "gastric acid secretion", "test": "Gastric Antisecretory Activity in the Gastric Fistula Rat", "type": "in vivo, rat (male Long Evans)", "conditions": "sc; for ED50: read-out: ED50 sc", "procedure": "Male Long Evans rats weighing about 240-260 grams at the time of cannula implantation are used. […] The fistula components are designed and the operative procedure is carried out exactly as described in the above reference. Post operatively the animals are individually housed in solid bottom cages with sawdust and are allowed food and water ad libitum throughout the entire recovery period. Animals are not used for test purposes for at least 15 days after the operative procedure. The animals are fasted but allowed water ad libitum for 20 hours before the testing procedure is to begin. […] The catheter is then screwed into the cannula in place of the plugging screw and the rat is placed in a clear plastic rectangular cage measuring 40 cm long, 15 cm wide and 13 cm high. The bottom of the cage has a slit approximately 1.5 cm wide and 25 cm long running down the center to accommodate the catheter which hangs through it. In this way the rat is not restricted and can move freely about the cage during collection periods. The remainder of the assay is carried out as described by Ridley et al. [Research Comm. Chem. Path. […] Gastric secretions collected during the first hour after washing the stomach are discarded as they may be contaminated. For oral evaluation, the catheter is then removed from the cannula and replaced with the plugging screw. […] After this time the plugging screw is removed and replaced with a catheter to which a small plastic vial has been attached to collect the gastric secretions. A two hour sample is collected (this represents the control secretion), the catheter removed and replaced with the plugging screw. […] Forty-five minutes later the plugging screw is again removed, replaced with the catheter attached to a small plastic vial and another 2 hour sample is collected. The secretions in the second sample are compared to those of the control sample in order to determine the effects of the test drug. […] Titratable acid output is calculated in microequivalents by multiplying the volume in milliliters by the acid concentration in milliequivalents per liter. Results are expressed as percent inhibition relative to control readings. Dose response curves are constructed and ED50 values are calculated by regression analyses. At least three rats are used at each dosage level and a minimum of three dosage levels are utilized for determination of a dose response curve."}, "[6]": {"test_system": "gastric acid secretion", "test": "Gastric Antisecretory Activity in the Heidenhain Pouch Dog", "type": "in vivo", "procedure": "Prior to surgery, hematology and blood chemistry profiles are obtained and an assessment made as to the general health of selected female dogs. Dogs are vaccinated with Tissue Vax 5 (DHLP--Pitman-Moore) and housed in general animal quarters for four weeks' observation so incipient diseases may become apparent. Dogs are fasted with water ad libitum 24 hours prior to surgery.\nAnesthesia is induced with Sodium Pentothal (Abbott) 25-30 mg/kg iv. Subsequent anesthesia is maintained with methoxyflurane (Pitman-Moore). A mid-line linea alba incision from xiphoid to umbilicus provides good exposure and ease of closure. The stomach is pulled up into the operative field, the greater curvature stretched out at multiple points and clamps placed along the selected line of incision. The pouch is made from the corpus of the stomach so that true parietal cell juice is obtained. About 30% of the corpus volume is resected. The cannula is made of light-weight,biologically-inert material such as nylon or Delrin with dimensions and attachments after DeVito and Harkins [J. Appl. Physiol., 14, 138 (1959)]. Post operatively, dogs are medicated with antibiotics and an analgesic. They are allowed 2-3 months for recovery. Experiments are carried out in the following way: Dogs are fasted overnight (~18 hours) with water ad libitum prior to each experiment. The dogs are placed in a sling and a saphenous vein cannulated for drug administration. Histamine as the base (100 μg/kg/hr) and chlorpheniramine maleate (0.25 mg/kg/hr) are infused continuously (in a volume of 6 ml/hr) with a Harvard infusion pump.\nNinety minutes' infusion are allowed for the dogs to reach a steady state of acid output. At this time the drug or normal saline (control) is administered concomitantly with the secretagogue in a volume of 0.5 ml/kg over a 30 second period. When oral studies are to be carried out, the drug is administered via gastric gavage in a volume of 5 ml/kg. Infusion of the secretagogue is continued and 15 minute samples of the gastric juice are taken for 4.5 hours. Each sample is measured to the nearest 0.5 ml and titratable acidity is determined by titrating a 1 ml sample to pH 7.0 with 0.2 N NaOH, using an Autoburet and an electrometric pH meter (Radiometer).Titratable acid output is calculated in microequivalents by multiplying the volume in milliliters by the acid concentration in milliequivalents per liter.\nResults are expressed as percent inhibition relative to control readings. Dose response curves are constructed and ED50 values are calculated by regression analyses. From 3 to 5 dogs are used at each dose level and a minimum of three dosage levels are utilized for determination of a dose response curve."}}}
{"smiles": "CNC(=S)NCCCCc1cnc[nH]1", "note": "[Burimamide]", "values": [{"measurement": "inhibition of gastric secretion / clinical effectiveness", "setting": "[1]; in animals and man", "value": "inhibits gastric secretion in animals and man"}, {"measurement": "oral absorption", "setting": "[2]", "value": "oral absorption is poor"}]}
{"smiles": "CNC(=NC#N)NCCSCc1nc[nH]c1C", "note": "[Cimetidine]", "values": [{"measurement": "potency / effectiveness as H2-antagonist versus other H2-antagonist", "setting": "[1]", "value": "as effective an H2 -antagonist as metiamide"}, {"measurement": "toxicity (agranulocytosis)", "setting": "[3]", "value": "without producing agranulocytosis"}, {"measurement": "therapeutic effect in treatment of peptic ulcer disease", "setting": "[4]", "value": "effective therapeutic agent in the treatment of peptic ulcer disease"}, {"measurement": "ED50", "setting": "[5]; Rattus norvegicus", "value": 3.8, "unit": "µmol/kg"}, {"measurement": "ED50", "setting": "[6]; Canis lupus familiaris, iv", "value": 2.18, "unit": "µmol/kg"}, {"measurement": "ED50", "setting": "[6]; Canis lupus familiaris, po", "value": "~3.3", "unit": "µmol/kg"}, {"measurement": "ED50", "setting": "[6]; oral", "value": 3.29, "unit": "µmol/kg"}]}
{"smiles": "Nc1c(NCCCOc2cccc(CN3CCCCC3)c2)c(=O)c1=O", "note": "[Example 1, 1-Amino-2-[3-(3-piperidinomethylphenoxy)propylamino]cyclobutene-3,4-dione]", "values": [{"measurement": "Potency Ratio (cimetidine = 1.0)", "setting": "[5]; Gastric Fistula Rat", "value": 130}, {"measurement": "ED50", "setting": "[5]; Gastric Fistula Rat", "value": 0.029, "unit": "µmol/kg"}, {"measurement": "ED50", "setting": "[6]; Canis lupus familiaris, oral, read-out: ED50", "value": 0.175, "unit": "µmol/kg"}, {"measurement": "Potency Ratio (cimetidine = 1.0)", "setting": "[6]; iv", "value": 91}, {"measurement": "Potency Ratio (cimetidine = 1.0)", "setting": "[6]; oral", "value": 19}]}
{"smiles": "CN(C)Cc1ccc(CSCCNc2c(N)c(=O)c2=O)o1", "note": "[Example 2, 1-Amino-2-{2-[(5-dimethylaminomethyl-2-furyl)methylthio]ethylamino}cyclobutene-3,4-dione]", "values": [{"measurement": "Potency Ratio (cimetidine = 1.0)", "setting": "[5]; Gastric Fistula Rat", "value": "~ 2"}, {"measurement": "ED50", "setting": "[5]; Gastric Fistula Rat", "value": "~2", "unit": "µmol/kg"}]}
{"smiles": "CNC(=S)NCCSCc1nc[nH]c1C", "note": "[Metiamide]", "values": [{"measurement": "potency / effectiveness as H2-antagonist versus other H2-antagonist", "setting": "[1]", "value": "more potent than burimamide"}, {"measurement": "oral activity in man", "setting": "[1]; oral, man", "value": "orally active in man"}, {"measurement": "toxicity (agranulocytosis)", "setting": "[3]", "value": "toxicity (agranulocytosis)"}]}
